This note sets out measurements from US8119647B2, “Fused pyrimidineone compounds as TRPV3 modulators” (Glenmark Pharmaceuticals S.A., priority 2008, dated 2012).

The test addresses T1, Human TRPV3 (Homo sapiens, UniProt Q8NET8).
T1 construct: expressed in transfected cells; host or cells: CHO cells (G-418 selection)
T1 sequence (Q8NET8 1-790): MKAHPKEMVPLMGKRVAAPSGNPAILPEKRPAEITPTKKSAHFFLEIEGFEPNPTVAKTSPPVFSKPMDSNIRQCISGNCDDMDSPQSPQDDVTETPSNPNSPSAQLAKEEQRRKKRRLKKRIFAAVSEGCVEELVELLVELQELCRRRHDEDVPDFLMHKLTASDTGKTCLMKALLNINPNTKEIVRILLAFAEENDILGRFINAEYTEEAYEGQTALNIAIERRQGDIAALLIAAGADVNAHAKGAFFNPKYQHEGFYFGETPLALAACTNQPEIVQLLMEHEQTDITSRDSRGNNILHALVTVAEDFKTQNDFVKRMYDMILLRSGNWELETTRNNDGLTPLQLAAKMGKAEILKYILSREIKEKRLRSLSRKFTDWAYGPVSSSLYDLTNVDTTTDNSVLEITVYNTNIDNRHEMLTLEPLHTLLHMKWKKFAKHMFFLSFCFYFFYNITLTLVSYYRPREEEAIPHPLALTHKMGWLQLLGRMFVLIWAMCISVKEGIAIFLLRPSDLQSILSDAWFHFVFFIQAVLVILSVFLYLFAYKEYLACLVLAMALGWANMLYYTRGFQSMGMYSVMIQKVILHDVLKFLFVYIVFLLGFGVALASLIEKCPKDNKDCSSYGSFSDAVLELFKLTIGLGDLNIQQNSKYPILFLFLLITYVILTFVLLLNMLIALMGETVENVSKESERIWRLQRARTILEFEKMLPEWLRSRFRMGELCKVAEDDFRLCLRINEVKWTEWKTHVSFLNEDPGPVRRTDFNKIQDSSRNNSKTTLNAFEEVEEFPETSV
The experiment in a line: Screening for TRPV3 antagonist using the 45Calcium uptake assay (inhibition of 2-APB induced cellular uptake of radioactive calcium). It is filed as cell-based. The note with it: human TRPV3 expressing CHO cells, 2-APB 500 μM; for inhibition at 1 µM / Percentage inhibition at 1.0 μM: 1.0 μM test compound; for inhibition at 1 µM: read-out: Percentage inhibition at 1.0 μM; for inhibition at 10 µM / Percentage inhibition at 10.0 μM: 10.0 μM test compound; for inhibition at 10 µM: read-out: Percentage inhibition at 10.0 μM; for IC50: class symbols. The source says:
The illustrative examples of the present invention are screened for TRPV3 activity according to a modified procedure described in Tóth, A., Kedei, N., Wang, Y. and Blumberg, P. M. Life Sciences (2003), 73, 487-498. The screening of the compounds can be carried out by other methods and procedures known to a person skilled in the art. Such screening methods may be found in (a) Hu, H.-Z. et al. J. Biol. Chem. (2004), 279, 35741-35747; (b) Smith, G. D. et al. Nature (2002), 418, 186-190; (c) Peier, A. M. et al. Science (2002), 296, 2046-2049.
Screening for TRPV3 Antagonist Using the ^45Calcium Uptake Assay:
The inhibition of TRPV3 receptor activation was followed as inhibition of 2-aminoethoxydiphenylborate (2-APB) induced cellular uptake of radioactive calcium. Test compounds were dissolved in dimethyl sulfoxide (DMSO) to prepare 20 mM stock solution and then diluted using plain medium with DMEM/F-12 containing 1.8 mM CaCl2 to get desired concentration. Final concentration of DMSO in the reaction was 0.5% (v/v). Human TRPV3 expressing CHO cells were grown in DMEM/F-12 medium with 10% FBS, 1% penicillin-streptomycin solution, 400 μg/ml of G-418. Cells were seeded 24 h prior to the assay in 96 well plates so as to get ˜50,000 cells per well on the day of experiment. Cells were treated with test compounds for 10 minutes followed by addition of 2-APB at a final concentration of 500 μM and 5 μCi/ml ^45Ca^+2 for 4 minutes. Cells were washed and lysed using buffer containing 1% Triton X-100, 0.1% deoxycholate and 0.1% SDS. Radioactivity in the lysate was measured in Packardt Top count after addition of liquid scintillant. Concentration response curves were plotted as a % of maximal response obtained in the absence of test antagonist. IC50 value was calculated from concentration response curve by nonlinear regression analysis using GraphPad PRISM software.
Percentage inhibition at concentrations of 1.0 μM and 10.0 μM are given in the table along with IC50 (nM) values for selected examples.

On to `CCCCOc1c(/C=C/c2nc3sccn3c(=O)c2-c2ccc(C#N)cc2)cccc1OC` [Example 9, 4-{7-[(E)-2-(2-Butoxy-3-methoxyphenyl)-1-ethenyl]-5-oxo-5H-[1,3]thiazolo[3,2-a]pyrimidin-6-yl}benzonitrile], for which the inhibition at 1 µM is 71.6%, the inhibition at 10 µM was determined as 91.9% and the IC50 fell in the range of 500 to 1000 nM.
Consider `COc1cccc(/C=C/c2nc3sc4ccccc4n3c(=O)c2-c2ccc(C#N)cc2)c1OCC1CC1` [Example 86], for which the “Percentage inhibition at 1.0 μM” value was determined as 45.5% and the “Percentage inhibition at 10.0 μM” value is 75.6%.
On the same counts, the results for `COCCOc1c(/C=C/c2nc3sc4ccccc4n3c(=O)c2-c2ccc(C(F)(F)F)cc2)cccc1OC` [Example 92, 2-{(E)-2-[(2-Methoxyethoxy)-3-methoxyphenyl]-1-ethenyl}-3-(4-trifluoromethylphenyl)-4H-benzo[4,5][1,3]thiazolo-[3,2-a]pyrimidin-4-one] are 23.11% and 47.48%.
As for `N#Cc1ccc(-c2c(/C=C/c3cccnc3)nc3sccn3c2=O)cc1` [Example 23, 4-{5-Oxo-7-[(E)-2-(3-pyridyl)-1-ethenyl]-5H-[1,3]thiazolo[3,2-a]pyrimidin-6-yl}-benzonitrile], the inhibition at 1 µM worked out at 15.4% and the inhibition at 10 µM was found to be 1.2%.
As to `COc1cccc(/C=C/c2nc3sccn3c(=O)c2-c2ccc(C#N)cc2)c1OCC1CCCCC1` [Example 19, 4-{7-[(E)-2-(2-Cyclohexylmethoxy-3-methoxy)phenyl-1-ethenyl]-5-oxo-5H-[1,3]-thiazolo[3,2-a]pyrimidin-6-yl}benzonitrile], the inhibition at 1 µM came to 74.6%, the inhibition at 10 µM stood at 88.4% and the 50% inhibitory concentration (IC50) lay within 250 to 500 nM.
As for `COc1cccc(/C=C/c2nc3sc4ccccc4n3c(=O)c2-c2ccc(C#N)cc2)c1OCC1CCC1` [Example 89], the “Percentage inhibition at 1.0 μM” value is 26.90% and the “Percentage inhibition at 10.0 μM” value turned out to be 57.53%.
In the case of `CCOCCOc1c(/C=C/c2nc3sccn3c(=O)c2-c2ccc(C(F)(F)F)cc2)cccc1OC` [Example 32, {7-[(E)-2-(2-Ethoxyethoxy)-3-methoxy)phenyl-1-ethenyl]-6-[4-(trifluoromethyl)phenyl]-5H-[1,3]thiazolo[3,2-a]pyrimidin-5-one], the “Percentage inhibition at 1.0 μM” value is 89.3%, the “Percentage inhibition at 10.0 μM” value was 97.7% and the IC50 lay in the range of 250 to 500 nM.
As to `COCCOc1c(/C=C/c2nc3sc4ccccc4n3c(=O)c2-c2ccc(C#N)cc2)cccc1OC` [Example 84, 4-(2-{(E)-2-[3-Methoxy-2-(methoxyethoxy)phenyl}-1-ethenyl}-4-oxo-4H-benzo[4,5]-[1,3]thiazolo-[3,2]pyrimidin-3-yl)benzonitrile], the inhibition at 1 µM worked out at 83.8%, the inhibition at 10 µM came out at 93.7% and the IC50 was in the range of 250 to 500 nM.
For the compound `COc1cccc(/C=C/c2nc3sccn3c(=O)c2-c2ccc(OC(F)(F)F)cc2)c1OCC(C)(C)C` [Example 52, 7-[(E)-2-{3-Methoxy-2-neopentyloxyphenyl}-1-ethenyl]-6-[4-(trifluoromethoxy)phenyl]-5H-[1,3]thiazolo[3,2-a]pyrimidin-5-one], the inhibition at 1 µM stood at 78.4%, the inhibition at 10 µM came out at 90.3% and the IC50 was below 250 nM.
Take `COc1cccc(/C=C/c2nc3sccn3c(=O)c2-c2ccc(OC(F)F)cc2)c1OCC1CC1` [Example 48, 7-[(E)-2-(2-Cyclopropylmethoxy-3-methoxyphenyl)-1-ethenyl]-6-(4-difluoromethoxyphenyl]-5H-[1,3]thiazolo[3,2-a]pyrimidin-5-one]: the inhibition at 1 µM was found to be 80%, the inhibition at 10 µM amounted to 95.1% and the IC50 was below 250 nM.
`COc1cccc(/C=C/c2nc3sccn3c(=O)c2-c2ccc(OCC(F)(F)F)cc2)c1OCC1CC1` [Example 45, 7-[(E)-2-(2-Cyclopropylmethoxy-3-methoxyphenyl)-1-ethenyl]-6-(4-(2,2,2-trifluoroethoxy)phenyl]-5H-[1,3]thiazolo[3,2-a]pyrimidin-5-one]: the inhibition at 1 µM is 30.7% and the inhibition at 10 µM came out at 77.5%.
Turning to `COc1cccc(/C=C/c2nc3sccn3c(=O)c2-c2ccc(C#N)cc2)c1OCCC(C)C` [Example 11, 4-{7-[(E)-2-(2-Isopentyloxy-3-methoxyphenyl)-1-ethenyl]-5-oxo-5H-[1,3]thiazolo[3,2-a]pyrimidin-6-yl}benzonitrile], the inhibition at 1 µM turned out to be 76.2%, the inhibition at 10 µM is 90% and the IC50 was below 250 nM.
As for `COc1cccc(/C=C/c2nc3sccn3c(=O)c2-c2ccc(OC(F)(F)F)cc2)c1OCC1CC1` [Example 58, 7-{(E)-2-[2-(Cyclopropylmethoxy)-3-methoxyphenyl}-1-ethenyl]-6-(4-trifluoromethoxyphenyl)-5H-[1,3]thiazolo[3,2-a]pyrimidin-5-one], the inhibition at 1 µM stood at 92.8%, the inhibition at 10 µM was found to be 95.9% and the IC50 is below 250 nM.
As for `COc1cccc(/C=C/c2nc3n(C)c4ccccc4n3c(=O)c2-c2ccc(OC(F)(F)F)cc2)c1OCC1CC1` [Example 98, 2-[(E)-2-(2-Cyclopropylmethoxy-3-methoxyphenyl)vinyl]-3-(4-trifluoromethoxyphenyl)-10-methylpyrimido[1,2-a]benzimidazol-4(10H)-one], the inhibition at 1 µM worked out at 23% and the inhibition at 10 µM is 30%.
For `CCCOc1c(/C=C/c2nc3sccn3c(=O)c2-c2ccc(C(F)(F)F)cc2)cccc1OC` [Example 25, 7-[(E)-2-(3-Methoxy-2-propoxyphenyl)-1-ethenyl]-6-[4-(trifluoromethyl)phenyl]-5H-[1,3]thiazolo[3,2-a]pyrimidin-5-one], the inhibition at 1 µM worked out at 70.7%, the inhibition at 10 µM worked out at 89.9% and the IC50 was in the range of 500 to 1000 nM.
Consider `COc1cccc(/C=C/c2nc3sccn3c(=O)c2-c2ccc(C#N)cc2)c1OCC(C)(C)C` [Example 13, 4-{7-[(E)-2-(3-Methoxy-2-neopentyloxyphenyl)-1-ethenyl]-5-oxo-5H-[1,3]thiazolo[3,2-a]pyrimidin-6-yl}benzonitrile], for which the inhibition at 1 µM was determined as 91.9%, the inhibition at 10 µM is 95.4% and the IC50 is below 250 nM.
For `COc1cccc(/C=C/c2nc3sccn3c(=O)c2-c2ccc(OCC3CC3)cc2)c1OCC1CC1` [Example 47, 7-[(E)-2-(2-Cyclopropylmethoxy-3-methoxyphenyl)-1-ethenyl]-6-(4-cyclopropylmethoxyphenyl]-5H-[1,3]thiazolo[3,2-a]pyrimidin-5-one], the inhibition at 1 µM stood at 43.7% and the inhibition at 10 µM was determined as 69.2%.
On the same counts, the results for `O=c1c(-c2ccc(C(F)(F)F)cc2)c(/C=C/c2ccccc2OCC2CC2)nc2sccn12` [Example 24] are 36.3% and 67.4%.
In the case of `COc1cccc(/C=C/c2nc3sccn3c(=O)c2-c2ccc(C#N)cc2)c1OC1CCCC1` [Example 18, 4-{7-[(E)-2-(2-Cyclopentyloxy-3-methoxy)phenyl-1-ethenyl]-5-oxo-5H-[1,3]thiazolo-[3,2-a]pyrimidin-6-yl}benzonitrile], the “Percentage inhibition at 1.0 μM” value stood at 85.0%, the “Percentage inhibition at 10.0 μM” value came to 94.2% and the IC50 is below 250 nM.
